± gives the expanded uncertainty stated by the source.
Experiments:
[1] = xn = mol fraction of the nth substance listed; details: 101 kPa, Liquid; for speed of sound: Linear variable-path acoustic interferometer; for mass density: Pycnometric method
[2] = 101.3 kPa, Liquid; for speed of sound: Linear variable-path acoustic interferometer; for mass density: Pycnometric method

CC(C)OC(C)C [diisopropyl ether] + CN(C)c1ccccc1
[1], x1 = 1
Details	mass density [kg/m3]	speed of sound [m/s]
303.15 K	712.9 ± 0.3	976 ± 2
313.15 K	702.5 ± 0.3	932 ± 2
323.15 K	691.9 ± 0.3	889 ± 2

CN(C)c1ccccc1 [N,N-dimethylaniline] + CC(C)OC(C)C
[1]
Details	mass density, 303.15 K [kg/m3]	mass density, 313.15 K [kg/m3]	mass density, 323.15 K [kg/m3]	speed of sound, 303.15 K [m/s]	speed of sound, 313.15 K [m/s]	speed of sound, 323.15 K [m/s]
x2 = 0	948.4 ± 0.3	939.8 ± 0.3	931.5 ± 0.4	1468 ± 3	1431 ± 3	1393 ± 3
x2 = 0.0741	932.6 ± 0.3	924.8 ± 0.3	916.9 ± 0.4	1430 ± 3	1396 ± 3	1360 ± 3
x2 = 0.1589	914 ± 0.3	906.5 ± 0.3	898.6 ± 0.4	1385 ± 3	1353 ± 3	1318 ± 2
x2 = 0.2428	895.3 ± 0.3	887.5 ± 0.3	879.6 ± 0.4	1342 ± 3	1311 ± 2	1277 ± 2
x2 = 0.3355	874.3 ± 0.3	866.2 ± 0.3	858.3 ± 0.4	1296 ± 2	1262 ± 2	1229 ± 2
x2 = 0.4294	852.6 ± 0.3	844.2 ± 0.3	836.3 ± 0.4	1250 ± 2	1214 ± 2	1182 ± 2
x2 = 0.5338	827.8 ± 0.3	819.2 ± 0.3	811.5 ± 0.3	1199 ± 2	1161 ± 2	1128 ± 2
x2 = 0.6362	802.8 ± 0.3	794.1 ± 0.3	786.4 ± 0.3	1149 ± 2	1112 ± 2	1078 ± 2
x2 = 0.7466	775.2 ± 0.3	766.4 ± 0.3	758.5 ± 0.3	1096 ± 2	1059 ± 2	1024 ± 2
x2 = 0.8676	744.8 ± 0.3	735.7 ± 0.3	726.9 ± 0.3	1038 ± 2	1000 ± 2	961 ± 2

CN(C)c1ccccc1 [N,N-dimethylaniline]
[2]
Details	mass density [kg/m3]	speed of sound [m/s]
303.15 K	948.4 ± 0.3	1468 ± 3
313.15 K	939.8 ± 0.3	1431 ± 3
323.15 K	931.5 ± 0.4	1393 ± 3

Source: the NIST ThermoML archive (doi:10.1016/j.tca.2011.02.004)
